Test system: HEK-293, SH-SY5Y, primary human keratinocytes, THP-1 differentiated with PMA
Test: Transcriptomics (microarray) after anatabine treatment of 4 cell systems
Format: cell-based
Conditions: for Fold Change TXNRD1: gene TXNRD1; for Fold Change ZBTB21: gene ZBTB21; for Fold Change ZFAND2A: gene ZFAND2A
Protocol: To investigate the signalling pathways triggered by anatabine, 4 cell systems (HEK-293, SH-SY5Y, primary human keratinocytes, THP-1 differentiated with PMA) were treated with 4 concentrations of anatabine (100, 200, 300, 400 μM) for 6 hours, after which transcriptomics measurements were performed.
HEK-293 is a human embryonic kidney cell line devoid of nicotinic receptors. It can be relatively easily transfected and therefore used as a tool to express various subtypes of nicotinic receptors or reporter genes such as NRF2-driven luciferase, which were also used in this study. HEK-293 were seeded in a cell culture medium consisting of EMEM, 10% FBS, 1% NEAA, 1% Sodium Pyruvate and 1% PenStrep. 60,000 cells were seeded per well of a 96-well plate.
SH-SY5Y is a human bone marrow neuroblastoma cell line that has been used by researchers to investigate the potential anti-inflammatory effect of anatabine. SH-SY5Y were seeded in a cell culture medium consisting of 50% EMEM and 50% Ham's F12 nutrient and including 10% FBS, 1% PenStrep and 1% L-glutamine. 15,000 cells were seeded per well of a 96-well plate.
Primary human keratinocytes have been included as a relevant cell system for skin. The batch of keratinocytes was selected in order to have healthy, non-smoker, 20-60 years old, Caucasian donors. The keratinocytes were seeded in a cell culture medium consisting of KGM-Gold Keratinocyte Growth Medium. 17,500 cells were seeded per well of a 96-well plate.
The human leukaemia-derived monocytic cell line THP-1, is the most widely used in vitro model for primary human macrophage investigations. THP-1 cells were seeded in a cell culture medium consisting of RPMI, 10% FBS and 1% PenStrep and in the presence of 40 ng/ml phorbol 12-myristate 13-acetate (PMA). 100,000 cells were seeded per well of a 96-well plate, having a total volume of […] per well. 48 hours later the medium was changed to the same culture medium but without PMA, and the culture was left to rest for 24 h before treatment.
All four cell systems were seeded in 96 well plates at a total volume of 190 μl per well to allow for a 20× compound stimulation with a volume of 10 μL. 24 hours after seeding—or in the case of THP-1, 24 h after changing to non-PMA medium—four cell systems were stimulated with anatabine (prepared at 20× the corresponding target concentration) to obtain a final molar concentration of 100, 200, 300, 400 μM anatabine.
In order to generate the transcriptomics data, the four cell systems were exposed to various concentrations of anatabine (100, 200, 300, 400 μM) for 6 hours. The transcriptome of the cells was analysed by a microarray-based analysis.
The cells were lysed using RLT BUFFER (Qiagen Hilden, Germany) for all cell types except the keratinocytes which were lysed with QIAZOL LYSIS REAGENT (Qiagen). RNA isolation was performed with RNEASY MICRO KIT (Qiagen). RNA quantification was assessed with a NANODROP 1000 (ThermoFisher Waltham, MA, USA) and quality of the total RNA was verified acquiring a profile with a 2100 BIOANALYZER (Agilent Technologies, Santa Clara, CA, USA), requiring an RIN number greater than 6.0. 50 ng of total RNA were processed as described in the TECAN/NUGEN OVATION RNA AMPLIFICATION SYSTEM V2 (Tecan Mannedorf, Switzerland). Human Genome U133 Plus 2.0 array were used for hybridization on a THERMOFISHER OVEN 645, washed on THERMOFISHER GENECHIP™ FLUIDICS STATIONS 450DX (protocol FS450-0004) and scanned on a THERMOFISHER GENECHIP™ SCANNER 3000 7G.
Quality control check of all chips was done with the BIOCONDUCTOR affyPLM R package version 1.64. Following quality control procedures, differential gene expression analysis was performed using the BIOCONDUCTOR LIMMA R package version 3.44.3. Pairwise comparisons at the gene level, called systems response profiles (SRP), were computed by comparing each concentration-treatment with its respective vehicle control. […]

[1] = cell system THP1, anatabine 200 μM
[2] = cell system THP1, anatabine 300 μM
[3] = cell system THP1, anatabine 400 μM
[4] = cell system HEK293, anatabine 100 μM
[5] = cell system HEK293, anatabine 200 μM
[6] = cell system HEK293, anatabine 300 μM
[7] = cell system HEK293, anatabine 400 μM
[8] = cell system KEAT, anatabine 100 μM
[9] = cell system KEAT, anatabine 200 μM
[10] = cell system KEAT, anatabine 300 μM
[11] = cell system KEAT, anatabine 400 μM
[12] = cell system SHSY5Y, anatabine 100 μM
[13] = cell system SHSY5Y, anatabine 200 μM
[14] = cell system SHSY5Y, anatabine 300 μM
[15] = cell system SHSY5Y, anatabine 400 μM
[16] = cell system THP1, anatabine 100 μM

## C1=CCC(c2cccnc2)NC1 (racemic) [anatabine, 1,2,3,6-Tetrahydro-2,3′-bipyridine]
G0S2 gene, SHSY5Y, anatabine 200 μM
  Fold Change: −0.07408
G0S2 gene, SHSY5Y, anatabine 300 μM
  Fold Change: −0.1621
G0S2 gene, SHSY5Y, anatabine 400 μM
  Fold Change: −0.6623
G0S2 gene, THP1, anatabine 100 μM
  Fold Change: −0.1613
G0S2 gene, THP1, anatabine 200 μM
  Fold Change: −0.07473
G0S2 gene, THP1, anatabine 300 μM
  Fold Change: −0.2674
G0S2 gene, THP1, anatabine 400 μM
  Fold Change: −0.3675
GCLM gene, HEK293, anatabine 100 μM
  Fold Change: 0.1086
GCLM gene, HEK293, anatabine 200 μM
  Fold Change: 0.5976
GCLM gene, HEK293, anatabine 300 μM
  Fold Change: 0.7652
GCLM gene, HEK293, anatabine 400 μM
  Fold Change: 1.165
GCLM gene, KEAT, anatabine 100 μM
  Fold Change: 0.5698
GCLM gene, KEAT, anatabine 200 μM
  Fold Change: 0.8549
GCLM gene, KEAT, anatabine 300 μM
  Fold Change: 1.582
GCLM gene, KEAT, anatabine 400 μM
  Fold Change: 1.567
GCLM gene, SHSY5Y, anatabine 100 μM
  Fold Change: 0.3907
GCLM gene, SHSY5Y, anatabine 200 μM
  Fold Change: 0.7053
GCLM gene, SHSY5Y, anatabine 300 μM
  Fold Change: 1.629
GCLM gene, SHSY5Y, anatabine 400 μM
  Fold Change: 2.292
GCLM gene, THP1, anatabine 100 μM
  Fold Change: 0.2992
GCLM gene, THP1, anatabine 200 μM
  Fold Change: 0.7816
GCLM gene, THP1, anatabine 300 μM
  Fold Change: 1.645
GCLM gene, THP1, anatabine 400 μM
  Fold Change: 2.36
HMOX1 gene, HEK293, anatabine 100 μM
  Fold Change: 0.7745
HMOX1 gene, HEK293, anatabine 200 μM
  Fold Change: 1.877
HMOX1 gene, HEK293, anatabine 300 μM
  Fold Change: 2.27
HMOX1 gene, HEK293, anatabine 400 μM
  Fold Change: 3.142
HMOX1 gene, KEAT, anatabine 100 μM
  Fold Change: 3.914
HMOX1 gene, KEAT, anatabine 200 μM
  Fold Change: 4.283
HMOX1 gene, KEAT, anatabine 300 μM
  Fold Change: 5.733
HMOX1 gene, KEAT, anatabine 400 μM
  Fold Change: 5.633
HMOX1 gene, SHSY5Y, anatabine 100 μM
  Fold Change: 0.8699
Four cell lines, 100, 200, 300, 400 μM for 6 hours
  NRF2 target genes (HMOX1, GCLM, NQO1, TXNRD1) mRNA: dose-dependent increase
[1]
  Fold Change TXNRD1: 0.4137
  Fold Change ZBTB21: 0.2576
  Fold Change ZFAND2A: 0.2497
[2]
  Fold Change TXNRD1: 0.8364
  Fold Change ZBTB21: 0.3746
  Fold Change ZFAND2A: 0.5677
[3]
  Fold Change TXNRD1: 1.246
  Fold Change ZBTB21: 0.5865
  Fold Change ZFAND2A: 1.236
[4]
  Fold Change ZBTB21: 0.1286
  Fold Change ZFAND2A: 0.1376
[5]
  Fold Change ZBTB21: 0.3704
  Fold Change ZFAND2A: 0.3375
[6]
  Fold Change ZBTB21: 0.3353
  Fold Change ZFAND2A: 0.4979
[7]
  Fold Change ZBTB21: 0.6783
  Fold Change ZFAND2A: 0.7014
[8]
  Fold Change ZBTB21: 0.4558
  Fold Change ZFAND2A: 0.2592
[9]
  Fold Change ZBTB21: 0.5643
  Fold Change ZFAND2A: 0.4658
[10]
  Fold Change ZBTB21: 0.9994
  Fold Change ZFAND2A: 3.354
[11]
  Fold Change ZBTB21: 0.8602
  Fold Change ZFAND2A: 1.766
[12]
  Fold Change ZBTB21: 0.1782
  Fold Change ZFAND2A: 0.09166
[13]
  Fold Change ZBTB21: 0.5134
  Fold Change ZFAND2A: 0.3919
[14]
  Fold Change ZBTB21: 0.6287
  Fold Change ZFAND2A: 0.5328
[15]
  Fold Change ZBTB21: 0.9685
  Fold Change ZFAND2A: 1.066
[16]
  Fold Change ZBTB21: −0.01334
  Fold Change ZFAND2A: 0.1252

Reference: patent publication US20260224547A1, “COMPOSITIONS COMPRISING ANATABINE AND USES THEREOF” (Philip Morris Products S.A., priority 2021, published 2026)
